Results as given in patent US4314028A, “Fermentation process for producing tallysomycin compounds” (priority 1980, dated 1982).

What was measured:
Sarcoma 180 = assay: animal or person; format: in vivo, dd-strain mice; details: copper-chelated form unless otherwise stated; for Antitumor activity S180 (ED150): ip, once daily 9 days, effective dose 150, survival; for Antitumor therapeutic index S180: single dose LD50/ED150
Excerpt: (§1) The antitumor activity of the tallysomycin derivatives was examined in four experimental tumor systems in mice. Lymphocytic leukemia P388 and Lewis lung carcinoma were implanted intraperitoneally into BDF1 mice of either sex at an inoculum size of 3×10^5 and 5×10^5 cells per mouse, respectively. Sarcoma 180 ascites tumor was inoculated intraperitoneally into male dd-strain mice with […] per mouse. Melanotic melanoma B16 was implanted subcutaneously into BDF1 mice with 5×10^5 cells per mouse. Twenty-four hours after the implantation of tumor cells, graded doses of test compounds were administered to mice intraperitoneally in an injection volume of 0.2 ml. per 10 grams of body weight. Test compounds were given once daily for 9 days (qd 1→9 schedule) except for the mice inoculated with Lewis lung carcinoma which were treated for 11 days (qd 1→11). Death or survival of the treated and non-treated (control) animals was recorded daily during the observation period of 45 days after the implantation of tumor cells, and the median survival time was calculated for each of the test (T) and control (C) groups. […] The actual dose giving a T/C of 125% was estimated by linear regression analysis and defined as the effective dose 125 or ED125. The effective dose 150 (ED150) was employed for the evaluation of antitumor effect against Sarcoma 180. In the B16 melanoma experiment the tumor size was measured on day 16 after tumor inoculation, and the dose giving 50% inhibition of tumor growth (ID50) was calculated from regression lines.
(§2) The antitumor therapeutic index was calculated for each derivative from the ratio of toxicity and antitumor activity.

[1] = Acute toxicity, single dose LD50; format: in vivo, dd mice; details: ip, 30 days observation, copper-chelated form unless otherwise stated
Protocol: Graded doses of test compounds were administered intraperitoneally to groups of dd mice. The injection was given one time only or once daily for 9 consecutive days. Death or survival of the animals was recorded for 30 days after the last dose of test compound to calculate the single or multiple median lethal dose (LD50).

Melanotic melanoma B16 = assay: Antitumor activity in mice, melanotic melanoma B16; format: in vivo, BDF1 mice; details: copper-chelated form unless otherwise stated; for Antitumor activity B16 (ID50): ip, once daily 9 days, 50% inhibition of tumor growth, day 16, 23040 min; for Antitumor therapeutic index B16: single dose LD50/ID50
Excerpt: as §1, §2

[2] = system: Mycobacterium smegmatis strain M6-3; assay: Relative antibacterial potency, paper-disc agar diffusion method; format: cell-based; details: relative to tallysomycin A standard=1000 mcg/mg
Protocol: The relative antibacterial potencies (tallysomycin A standard=1000 mcg/mg) of the tallysomycin derivatives were determined by the paper-disc agar diffusion method using Mycobacterium smegmatis strain M6-3 as the assay organism.

[3] = system: lysogenic bacterium E. coli W1709 (λ); assay: Prophage induction of lysogenic bacterium (ILB activity); format: cell-based; details: t/c ratio of plaque counts greater than 3.0
Protocol: The activity of prophage induction of lysogenic bacterium E. coli W1709 (λ) was determined according to the method disclosed by Lein et al. in Nature 196: 783-784 (1962). The plaque count was made on the agar plate containing test compound (t) and control plate (c). A t/c ratio of the plaque counts of greater than 3.0 was defined to be a significant level and lysogenic induction activity (ILB activity) was expressed by the minimum inducible concentration of the test compound.

Mycobacterium 607 = assay: MIC, two-fold agar dilution method; format: cell-based; details: nutrient agar
Protocol: (§3) The minimum inhibitory concentrations (MIC) of the semibiosynthetic tallysomycin derivatives of the present invention were determined against fungi and gram-positive, gram-negative and acid-fast bacteria by the two-fold agar dilution method. Nutrient agar was used for bacteria and Sabouraud agar for fungi. The results are shown in the table below comparatively with tallysomycin A and B.

Sarcina lutea PCI1001 = assay: MIC, two-fold agar dilution method; format: cell-based; details: nutrient agar
Protocol: as §3

Proteus mirabilis A9554 = assay: MIC, two-fold agar dilution method; format: cell-based; details: nutrient agar
Protocol: as §3

Escherichia coli NIHJ = assay: MIC, two-fold agar dilution method; format: cell-based; details: nutrient agar
Protocol: as §3

[4] = system: Bacillus subtilis PCI 219; assay: MIC, two-fold agar dilution method; format: cell-based; details: nutrient agar
Protocol: as §3

[5] = system: Candida albicans IAM 4888; assay: MIC, two-fold agar dilution method; format: cell-based; details: Sabouraud agar
Protocol: as §3

[6] = system: Staphylococcus aureus Smith; assay: MIC, two-fold agar dilution method; format: cell-based; details: nutrient agar
Protocol: as §3

[7] = system: Aspergillus fumigatus IAM 2593; assay: MIC, two-fold agar dilution method; format: cell-based; details: Sabouraud agar
Protocol: as §3

[8] = system: Lymphocytic leukemia P388; assay: animal or person; format: in vivo, BDF1 mice; details: copper-chelated form unless otherwise stated; for Antitumor activity P388 (ED125): ip, once daily 9 days, dose giving T/C survival of 125%; for Antitumor therapeutic index P388: single dose LD50/ED125
Excerpt: as §1, §2

| Structure (SMILES) | Antitumor activity S180 (ED150) (Sarcoma 180) [mg/kg/day] | Antitumor therapeutic index S180 (Sarcoma 180) | LD50 single dose [1] [mg/kg/day] | Antitumor activity B16 (ID50) (Melanotic melanoma B16) [mg/kg/day] | Antitumor therapeutic index B16 (Melanotic melanoma B16) | Antibacterial potency [2] | ILB activity (minimum inducible concentration) [3] [µg/mL] | minimum inhibitory concentration (MIC) (Mycobacterium 607) | minimum inhibitory concentration (MIC) (Sarcina lutea PCI1001) | minimum inhibitory concentration (MIC) (Proteus mirabilis A9554) | minimum inhibitory concentration (MIC) (Escherichia coli NIHJ) | minimum inhibitory concentration (MIC) [4] | minimum inhibitory concentration (MIC) [5] | minimum inhibitory concentration (MIC) [6] | minimum inhibitory concentration (MIC) [7] | Antitumor activity P388 (ED125) [8] [mg/kg/day] | Antitumor therapeutic index P388 [8] |
| --- | --- | --- | --- | --- | --- | --- | --- | --- | --- | --- | --- | --- | --- | --- | --- | --- | --- |
| Cc1c(N)nc(C(CC(N)=O)NCC(N)C(N)=O)nc1C(=O)NC(C(=O)NC(C)C(O)CC(=O)NC(C(=O)NC(OC1OC(C)C(N)C(O)C1O)C(O)c1nc(-c2nc(C(=O)NCCCN3CCCCC3C)cs2)cs1)C(C)O)C(OC1OC(CO)C(O)C(O)C1OC1OC(CO)C(O)C(OC(N)=O)C1O)c1c[nH]cn1 (stereo not shown) [Tallysomycin S13b] | 0.33 | 106 | 35 | 0.23 | 152 | 1,090 μ/mg | 0.08 | 0.2 | 6.3 | 12.5 | 0.4 | 0.8 | > 100 | 6.3 | 12.5 | 0.70 | 50 |
| Cc1c(N)nc(C(CC(N)=O)NCC(N)C(N)=O)nc1C(=O)NC(C(=O)NC(C)C(O)CC(=O)NC(C(=O)NC(OC1OC(C)C(N)C(O)C1O)C(O)c1nc(-c2nc(C(=O)NCCCN(C)C)cs2)cs1)C(C)O)C(OC1OC(CO)C(O)C(O)C1OC1OC(CO)C(O)C(OC(N)=O)C1O)c1c[nH]cn1 (stereo not shown) [Tallysomycin S7b] | 0.14 | 214 | 30 | 0.16 | 188 | 380 μ/mg | 0.08 | 3.1 | 12.5 | 6.3 | 0.4 | 0.1 | > 50 | 6.3 | 0.4 | 2.1 | 14 |
| Cc1c(N)nc(C(CC(N)=O)NCC(N)C(N)=O)nc1C(=O)NC(C(=O)NC(C)C(O)CC(=O)NC(C(=O)NC(OC1OC(C)C(N)C(O)C1O)C(O)c1nc(-c2nc(C(=O)NCCCN3CCOCC3)cs2)cs1)C(C)O)C(OC1OC(CO)C(O)C(O)C1OC1OC(CO)C(O)C(OC(N)=O)C1O)c1c[nH]cn1 (stereo not shown) [Tallysomycin S12b] | 0.06 | > 833 | > 50 | 1.30 | > 38 | 390 μ/mg | 0.31 | 0.2 | 12.5 | 50 | 1.6 | 0.4 | > 100 | 12.5 | 25 | 1.30 | > 38 |
| Cc1c(N)nc(C(CC(N)=O)NCC(N)C(N)=O)nc1C(=O)NC(C(=O)NC(C)C(O)CC(=O)NC(C(=O)NC(OC1OC(C)C(N)C(O)C1O)C(O)c1nc(-c2nc(C(=O)NCCCC(N)CC(=O)NCCCCN)cs2)cs1)C(C)O)C(OC1OC(CO)C(O)C(O)C1OC1OC(CO)C(O)C(OC(N)=O)C1O)c1c[nH]cn1 (stereo not shown) [Tallysomycin S10a] | 0.08 | 338 | 27 | 0.39 | 69 | 1,450 μ/mg | 0.16 | 0.2 | 0.4 | 0.8 | 0.4 | 0.04 | 3.1 | 1.6 | 1.6 | 0.28 | 96 |
| Cc1c(N)nc(C(CC(N)=O)NCC(N)C(N)=O)nc1C(=O)NC(C(=O)NC(C)C(O)CC(=O)NC(C(=O)NC(OC1OC(C)C(N)C(O)C1O)C(O)c1nc(-c2nc(C(=O)NCCCC(N)CC(=O)NCCCN)cs2)cs1)C(C)O)C(OC1OC(CO)C(O)C(O)C1OC1OC(CO)C(O)C(OC(N)=O)C1O)c1c[nH]cn1 (stereo not shown) [Tallysomycin S1a] | 0.07 | 357 | 25 | 0.84 | 30 | 1,075 μ/mg | 0.16 | 0.012 | 0.1 | 0.4 | 0.1 | < 0.003 | 3.1 | 0.4 | 0.8 | 1.2 | 21 |
